According to patent publication US5321130A, “Unsymmetrical cyanine dyes with a cationic side chain” (priority 1992, dated 1994):

Key:
[1] = Absorption spectra of free dye in methanol or pH 7.4 buffer; type: physicochemical; conditions: no DNA
Method: (§1) The strength of absorption and/or fluorescence is indicated by the extinction coefficient. The maximum extinction coefficient (εmax) for the unbound dyes is calculated from the longest wavelength absorption maximum according to the Beer-Lambert law based on the known concentration of the solutions. The extinction coefficient for the dye bound to DNA is calculated from the change in maximum absorbance compared to the dye in free aqueous solution. Typically the extinction coefficient for both bound and unbound dyes is between about 50,000 M^-1 cm^-1 and about 150,000 M^-1 cm^-1.
(§2) Solutions of Compounds 1-8 are prepared by accurately weighing 5 mg quantities and dissolving in DMSO (dimethylsulfoxide) to give a 1 mg/ml stock solution. These solutions are diluted 200 fold into either methanol or a pH 7.4 buffer solution comprising 10 mM Tris, 1 mM EDTA and 50 mM NaCl. Each absorption spectrum is recorded on an IBM Instruments 9420 spectrophotometer. The absorption maximum for each dye without the presence of nucleic acid polymers (λA) is tabulated (Table 2). To the solutions of Compounds 1-8 in pH 7.4 buffer is added sufficient calf thymus DNA (Sigma Chemical Co. D-1501) stock solution calculated to yield a ratio of 50 DNA base pairs per dye molecule or greater. The absorption maximum for each dye bound to DNA is again tabulated (Table 2). […] Where the spectra are not rescaled, the changes in extinction coefficient and absorption wavelength range accompanying binding to DNA are clearly illustrated (FIG. 2).

calf thymus DNA [2] = assay: Absorption spectra of dye bound to calf thymus DNA; type: binding; conditions: pH 7.4 + DNA, ratio of 50 DNA base pairs per dye molecule or greater
Method: Absorption spectra of solutions of Compounds 1-8 (4 μM) in pH 7.4 buffer (10 mM Tris, 1 mM EDTA and 50 mM NaCl) are recorded on a Perkin-Elmer Lambda 6 spectrophotometer after the addition of sufficient calf thymus DNA (Sigma Chemical Co. D-1501) to yield a ratio of 50 DNA base pairs per dye molecule or greater. The spectra are normalized to a maximum absorbance of 1.0 by numerical rescaling.
The absorption spectrum of Compound 4 in buffer, prepared as for FIG. 1, is recorded on a Perkin-Elmer Lambda 6 spectrophotometer before and after addition of calf thymus DNA. The spectra are not rescaled, illustrating the changes in extinction coefficient and absorption wavelength range accompanying binding to DNA.
as §1, §2

calf thymus DNA [3] = assay: Fluorescence emission spectra and enhancement on binding to calf thymus DNA; conditions: 0.4 μM dye; for λF (fluorescence maximum), bound to DNA: pH 7.4 + DNA; for Enhancement (QY + DNA)/(QY - DNA): pH 7.4, DNA:fluorophore ratio of 50 bp:1 or greater
Method: Fluorescence emission spectra of solutions (0.4 μM) of Compounds 1-8 in pH 7.4 buffer (10 mM Tris, 1 mM EDTA and 50 mM NaCl), after sufficient calf thymus DNA (Sigma Chemical Co. D-1501) is added to yield a ratio of 50 DNA base pairs per dye molecule or greater, are recorded on an Alphascan spectrofluorometer (PTI Inc.) with excitation at approximately (λA -25 nm) where λA is the absorption maximum of the dye bound to DNA (Table 2).
Solutions of each of Compounds 1-8 (0.4 μM) in pH 7.4 buffer (10 mM Tris, 1 mM EDTA and 50 mM NaCl) are prepared as above. Fluorescence emission spectra are recorded on an Alphascan spectrofluorometer (PTI Inc.) with excitation at approximately (λA -25 nm) where λA is the absorption maximum of the dye bound to DNA. After sufficient calf thymus DNA (Sigma Chemical Co. D-1501) is added to yield a ratio of 50 DNA base pairs per dye molecule or greater, fluorescence emission spectra are again recorded (Table 2). The spectra are integrated and enhancement ratio (Table 2) is calculated as follows: [formula] in which the ratio (A-)/(A+) is the ratio of the absorbances for the free and bound dye respectively at the excitation wavelength.

[4] = tested on: DNA of mouse fibroblast 3T3 cells; assay: Analysis of cellular DNA content (lysed 3T3 cells, fluorescence); type: cell-based
Method: Mouse fibroblast 3T3 cells aliquoted into microtiter plates are subjected to a freeze/thaw protocol to lyse cells and release DNA into solution. Compound 3 in TNE buffer is added to each well and the plates are scanned in a Cytofluor 2350 microtiter plate reader (Millipore Corp.) with excitation at 485 nm and emission detected at 530 nm. […] Treatment of half the wells with 20 μg/ml DNAse 1 for one hour at 37° C. in DNAse 1 buffer (10 mM MnCl2, 50 mM TRIS, pH 7.7) eliminates more than 95% of the fluorescence (filled circles).
The method of Rago et al. [Analytical Biochemistry 191, 31 (1990)] is adapted for use with the nucleotide-specific stain Compound 3. 3T3 cells (a mouse fibroblast cell line) are aliquoted into 96-well microtiter plates and allowed to adhere over a period of 4 hours. Cell numbers used are between 100 and 100,000 in 100 μl of Dulbecco's Modified Eagle Medium (DMEM). […]
For fluorescence analysis, 100 μl of distilled water is added to each well and the plates incubated at 37° C. for one hour, frozen at -80° C. then thawed to room temperature. […] 100 μl of 10 μM Compound 3 in TNE buffer (2 M NaCl, 10 mM TRIS, 1 mM EDTA pH 7.4) is added to each well and the plates scanned in a Cytofluor 2350 microtiter plate reader (Millipore Corp.) with excitation at 485 nm and emission detected at 530 nm. […]

calf thymus DNA [5] = assay: Dye/nucleic acid affinity: partition coefficient Kp by fluorescence titration with DNA; type: binding
Method: The fluorescence intensity (F) determined in a fluorescence plate reader (CytoFluor from Millipore Corporation), is measured versus DNA concentration expressed in terms of base pairs concentration (B). […] In all the titrations, [Dye]/[Base Pair] is always […] than 3 to fulfill the requirements of the partition model.
The nucleic acid/water partition coefficient (Kp) representing the relative affinity of the dye for DNA is calculated from the fluorescence data according to the following formula:
1/F=[5.6·10^7 /(Kp Fo)](1/B)+1/Fo
where 5.6·10^7 (μM) is water molar concentration; B is the concentration of base pairs; and Fo is the fluorescence enhancement at saturation. Table 3 gives the Kp values of representative dyes via the partition model in the presence of 10% ethanol.

DNA or RNA = assay: Optical properties upon binding with DNA or RNA (general statements); conditions: binding to nucleic acid polymers
Source text: The enhanced fluorescence of the dyes in the bound versus unbound state is exemplified in Table 2. In particular, the absorption curve typically shifts to a longer wavelength. Typically, the absorption curve shift is between about 5 and about 20 nm. […] When combined with nucleic acid polymers, the novel dyes of this invention generally have a Stokes shift of between about 15 to about 30 nm. Table 2 includes the excitation and emission maxima (λA and λF respectively) for Compounds 1-8.
The fluorescence of the novel dyes bound to DNA or RNA is enhanced at least about 9 fold. Typically fluorescence is enhanced at least about 100 fold, sometimes as much as 1000 fold or more, depending on the amount and purity of the dye present in the sample (Table 2). This significant increase in fluorescence intensity reduces or eliminates the problem of background fluorescence due to unbound dye, thus avoiding the necessity to separate the unbound dye before measuring the fluorescence. Even where the dyes are intrinsically fairly fluorescent, however, such that the enhancement in fluorescence quantum yield which results from binding to nucleic acid polymers is less than 10 fold (e.g. Compound 5), the significant shift in absorption maxima that results from such binding (see Table 2, FIG. 2) can be used to quantitatively or qualitatively measure the presence of nucleic acid polymers.

SMILES | εmax (extinction coefficient) ([1]; methanol) | λA (absorption maximum) ([1]; methanol) [nm] | εmax (extinction coefficient) ([1]; pH 7.4 buffer) | λA (absorption maximum) ([1]; pH 7.4 buffer) [nm] | εmax (extinction coefficient), bound to DNA (calf thymus DNA [2]) | λA (absorption maximum), bound to DNA (calf thymus DNA [2]) [nm] | λF (fluorescence maximum), bound to DNA (calf thymus DNA [3]) [nm] | enhancement in fluorescence quantum yield on binding (DNA or RNA) | Enhancement (QY + DNA)/(QY - DNA) (calf thymus DNA [3]) [x] | fluorescence eliminated by DNAse 1 treatment ([4]; 20 μg/ml DNAse 1, one hour, 37° C.) | fluorescence versus cell number ([4]; Ex 485 nm, Em 530 nm, TNE buffer) | effect of ethanol on DNA affinity (Kp) (calf thymus DNA [5]; 10% ethanol) | apparent affinity Kp, effect of dye concentration (calf thymus DNA [5]; binding buffer without ethanol, 0.1 vs 0.22 μM dye)
C[n+]1c(C=C2C=CN(CCC[N+](C)(C)C)C=C2)oc2ccccc21 [Compound 1] | 77,500 M^-1 cm^-1 | 423 | 75,500 M^-1 cm^-1 | 423 | 50,100 M^-1 cm^-1 | 435 | 455 |  | 456 |  |  |  | 
C[n+]1c(C=C2C=CN(CCC[N+](C)(C)C)C=C2)sc2ccccc21 [Compound 2] | 80,200 M^-1 cm^-1 | 452 | 76,200 M^-1 cm^-1 | 451 | 58,100 M^-1 cm^-1 | 462 | 481 |  | 892 |  |  |  | 
C[n+]1c(C=C2C=CN(CCC[N+](C)(C)C)c3ccccc32)oc2ccccc21 [Compound 3] | 72,600 M^-1 cm^-1 | 482 | 66,000 M^-1 cm^-1 | 481 | 52,013 M^-1 cm^-1 | 491 | 509 |  | 925 | more than 95% | linear increase of fluorescence with cell number |  | 
C[n+]1c(C=C2C=CN(CCC[N+](C)(C)C)c3ccccc32)sc2ccccc21 [Compound 4] | 73,800 M^-1 cm^-1 | 507 | 68,500 M^-1 cm^-1 | 506 | 62,800 M^-1 cm^-1 | 515 | 531 |  | 1806 |  |  | ethanol decreases the DNA affinity | larger with 0.1 μM dye than with 0.22 μM

Continued, in another order:

εmax (extinction coefficient) ([1]; methanol) | λA (absorption maximum) ([1]; methanol) [nm] | εmax (extinction coefficient) ([1]; pH 7.4 buffer) | λA (absorption maximum) ([1]; pH 7.4 buffer) [nm] | εmax (extinction coefficient), bound to DNA (calf thymus DNA [2]) | λA (absorption maximum), bound to DNA (calf thymus DNA [2]) [nm] | λF (fluorescence maximum), bound to DNA (calf thymus DNA [3]) [nm] | enhancement in fluorescence quantum yield on binding (DNA or RNA) | SMILES | Enhancement (QY + DNA)/(QY - DNA) (calf thymus DNA [3]) [x] | fluorescence eliminated by DNAse 1 treatment ([4]; 20 μg/ml DNAse 1, one hour, 37° C.) | fluorescence versus cell number ([4]; Ex 485 nm, Em 530 nm, TNE buffer) | effect of ethanol on DNA affinity (Kp) (calf thymus DNA [5]; 10% ethanol) | apparent affinity Kp, effect of dye concentration (calf thymus DNA [5]; binding buffer without ethanol, 0.1 vs 0.22 μM dye)
 | 525 |  | 523 |  | 532 | 562 | less than 10 fold | C[n+]1c(C=CC=CC=C2C=CN(CCC[N+](C)(C)C)C=C2)oc2ccccc21 [Compound 5] | 9 |  |  |  | 
 | 564 |  | 560 |  | 575 | 599 |  | C[n+]1c(C=CC=CC=C2C=CN(CCC[N+](C)(C)C)C=C2)sc2ccccc21 [Compound 6] | 29 |  |  |  | 
133,100 M^-1 cm^-1 | 600 | 122,000 M^-1 cm^-1 | 596 | 100,100 M^-1 cm^-1 | 612 | 631 |  | C[n+]1c(C=CC=C2C=CN(CCC[N+](C)(C)C)c3ccccc32)oc2ccccc21 [Compound 7] | 155 |  |  |  | 
143,200 M^-1 cm^-1 | 635 | 98,200 M^-1 cm^-1 | 631 | 102,000 M^-1 cm^-1 | 642 | 661 |  | C[n+]1c(C=CC=C2C=CN(CCC[N+](C)(C)C)c3ccccc32)sc2ccccc21 [Compound 8] | 80 |  |  |  | 
